# From paper PMC11293026, “Light-activated azobenzene peptide inhibitor of the PD-1/PD-L1 interaction” (Chemical Communications (Cambridge, England), 2024)
# Entries after “also recorded” stand apart in the source; their conditions may differ. *1 amine or outer side, *2 acyl side, *3 side chain or, on linkers, in order; H or OH if unused. Where a SMILES comes first, the peptide text is derived from it. [ ]: non-standard residue; d: D form. X1 = O=C(Cc1cccc(/N=N/c2cccc(CN[*:1])c2)c1)[*:2]
# How the values were obtained:
# [1] = target: T1, PD-1/PD-L1 interaction (Homo sapiens, UniProt Q9NZQ7); experiment: PD-1/PD-L1 HTRF binding assay (Cisbio); conditions: for IC50: HTRF, 1 h at room temperature, three parameter logistic fit, brackets = 95% confidence interval, read-out: IC50, inhibition of PD-1/PD-L1 (HTRF); for IC50 / Alanine scan of CLP003, inhibition of PD-1/PD-L1 (HTRF) at single concentration: triplicate; for Alanine scan of CLP003, inhibition of PD-1/PD-L1 (HTRF) at single concentration: peptides screened at 1 mM in europium detection buffer, representative of n = 3
# T1 construct: purchased Cisbio
# Procedure: All peptides were screened at 1 mM in europium detection buffer, BMS-1 (10 μM) was the control, the positive control contained tagged PD-L1 and tagged PD-1, the negative control contained tagged PD-L1 only. Errors are SEM, performed in triplicate. Representative example of n = 3. (B) Example azobenzene modified peptide, peptide 1, predicted to be unstructured in the trans isomer and a turn motif in the cis isomer. Structures predicted with RFAllAtom and Maestro. The arrows between residues in the cis conformation implies the N to C direction. (C) The analytical HPLC traces (254 nm) showing pre-irradiated (red), irradiated at 365 nm for 20 min (blue) and a co-injection of the two samples (green). (D) UV-Vis spectra of 1. […] Post irradiation, and after up to 6 hours in the dark characteristic maxima for the cis isomer at 450 nm is observed. (E) Absorbance at 330 nm over 10 cycles of photoisomerization of peptide 1 after 20 min irradiation at 365 nm, and then isomerisation for 20 min exposed to white light. […]
# 6. PD-1/PD-L1 HTRF binding assay
# This assay was purchased from CisBio and was performed following the manufacturer’s protocol. Tag1-PD-L1 and Tag2-PD-1 was diluted 40-fold from the stock solution with PPI-Europium detection buffer. Anti-Tag1 Eu Cryptate reagent and Anti-Tag2 XL665 antibody was diluted 50-fold from the stock solution with PPI-Europium detection buffer. HTRF 96-well low volume white plate was used. The samples were made to the desired concentration and 2 µL was pipetted into the well. The 4 µL of Tag-1-PD-L1 solution (25 nM) was added, followed by 4 µL of Tag2-PD-1 solution (250 nM). 1X Anti-Tag1 Eu Cryptate reagent solution (25 nM|) and 1X Anti-Tag2 XL665 antibody solution (250 nM) were pre-mixed prior to dispensing 10 µL into the well, for a total volume of 20 µL. The plate was sealed and incubated for 1 hour at room temperature. Samples were analysed in triplicate. Once incubated, the plate was read using a CLARIOstar (BMG Labtech) microplate reader following manufacturer’s protocols for time resolved fluorescence (excitation filter EX-TR, emission filters 620 (10) nm, 665 (10) nm, dichoric mirror LP-TR, integration delay (lag time) 60 µs, integration time 400 µs, number of flashes 200, gain for white plate 2500).
# The emission ratio was calculated for each well was calculated with the following equation:
# Ratio = 665 nm Intensity […]
# The “specific signal” (ΔR) is obtained by subtracting the background from the signal of each […]
# ∆R = RatioSample ‒ Ratiobackground […]
# interaction. The data was fit to a three parameter logistic regression model with resulting R2 […]
# On the day of analysis Raji-APC-nPD-L1 cell suspension ~100,000
# (90 µL) was added to a 96 well plate containing test sample (1.8 µL), followed by Jurkat-Lucia TCR-hPD-1 cell suspension of ~200,000 (90 µL). The plate was incubated at 37 °C in a CO2 incubator for 6 hours. The co-cultured supernatant was transferred to 96-well clear bottomed […]
# white plate. […]
# [2] = system: PD-1/PD-L1; conditions: read-out: IC50, PD-1/PD-L1 inhibition of BMS-1; cited from earlier work
# Source text: Photo-switchable peptides that have the potential to be switched “on” and “off” through structural changes, present an opportunity for externally controlled immune checkpoint inhibitors.
# [3] = system: PD-1/PD-L1 interaction between Jurkat-Lucia TCR-hPD-1 and Raji-APC PD-L1 cells; experiment: PD-1/PD-L1 immune checkpoint blockade cell-based assay (InvivoGen), luciferase read-out; set-up: species or system human; conditions: Jurkat/Raji co-culture, 6 h at 37 °C, luminescence; 1 tested as cis isomer (irradiated at 365 nm); triplicate; brackets = 95% CI
# Procedure: Fig. 3 (A) HTRF assay with PD-1/PD-L1 and peptides CLP003, cis1 And trans1. (B) PD-1/PD-L1 immune checkpoint blockade assay (Invivogen). Increased luminescence implies PD-1/PD-L1 inhibition between modified Jurkat and Raji cells. Errors are SEM, performed in triplicate. Representative examples of n = 3.
# There was concern that during the cellular assay incubation at 37 °C may result in the azobenzene modified peptide relaxing back to the trans isomer. To determine whether 1 was thermally stable to continue with cellular assays, 1 was incubated at 37 °C for 8 h after irradiation at 365 nm for 15 minutes in buffer. […] To explore the activity of 1 in a cellular context, an immune checkpoint blockade assay was performed. The cell-based assay (InvivoGen) consists of Jurkat T cells that are engineered to express luciferase via T cell receptor (TCR) signalling and Raji cells engineered to express PD-L1 on the cell surface. If PD-L1 is bound to PD-1, the luciferase expression is inhibited. […] As such, luciferase activity directly correlates to the PD-1/PD-L1 interaction, measured by luminescence following luciferin addition. […]
# The assay was performed following the manufacturer’s protocol. […] The plate was read using a CLARIOstar (BMG Labtech) microplate reader and used following manufacturer’s protocols, reading luminescence at a 4 s start time and 0.1 s […]
# [4] = target: PD-L1; conditions: cited from earlier work
# Source text: To determine where to insert AMPP, alanine scanning mutagenesis highlighted which amino acids were essential for inhibition using a homogenous time-resolved fluorescence (HTRF) binding assay (Cisbio).[38] From this Tyr5 and Trp7 were highlighted as being […] for inhibition (Fig. 2A). […] Photo-switchable peptides that have the potential to be switched “on” and “off” through structural changes, present an opportunity for externally controlled immune checkpoint inhibitors.
# [5] = Thermal stability of 1 at 37 °C, analytical HPLC; type: physicochemical; conditions: after irradiation at 365 nm for 15 min, 1 mg/mL in IMDM with 10% FBS, Pen-Strep and Normocin, analytical HPLC every hour
# Procedure: There was concern that during the cellular assay incubation at 37 °C may result in the azobenzene modified peptide relaxing back to the trans isomer. To determine whether 1 was thermally stable to continue with cellular assays, 1 was incubated at 37 °C for 8 h after irradiation at 365 nm for 15 minutes in buffer. […] To explore the activity of 1 in a cellular context, an immune checkpoint blockade assay was performed. The cell-based assay (InvivoGen) consists of Jurkat T cells that are engineered to express luciferase via T cell receptor (TCR) signalling and Raji cells engineered to express PD-L1 on the cell surface. If PD-L1 is bound to PD-1, the luciferase expression is inhibited. If the PD-1/PD-L1 interaction is inhibited, TCR signalling causes luciferase expression. As such, luciferase activity directly correlates to the PD-1/PD-L1 interaction, measured by luminescence following luciferin addition. […]
# Figure 6 a) The analytical HPLC traces of 6 reading at 214 nm top: after irradiation at 365 nm for 20 minutes showing predominantly the cis isomer (74:26) bottom: after being exposed for 20 minutes of ambient light showing predominantly the […]
# This assay was purchased from CisBio and was performed following the manufacturer’s protocol. […] Samples were analysed in triplicate. […]
# The emission ratio was calculated for each well was calculated with the following equation: […]
# T1 sequence (Q9NZQ7 19-238 limits assumed): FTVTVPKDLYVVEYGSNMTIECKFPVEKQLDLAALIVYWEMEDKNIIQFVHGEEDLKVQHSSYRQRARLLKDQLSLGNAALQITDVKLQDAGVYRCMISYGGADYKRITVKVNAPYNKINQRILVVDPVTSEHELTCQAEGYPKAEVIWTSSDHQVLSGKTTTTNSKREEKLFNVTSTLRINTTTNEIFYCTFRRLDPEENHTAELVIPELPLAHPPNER
Compound,IC50 [1] [nM],"Alanine scan of CLP003, inhibition of PD-1/PD-L1 (HTRF) at single concentration [1]",EC50 [3] [nM],further results
CC(=O)N[C@@H](Cc1c[nH]c2ccccc12)C(=O)N[C@@H](Cc1c[nH]cn1)C(=O)N[C@@H](Cc1ccccc1)C(=O)N[C@@H](CO)C(=O)N[C@@H](Cc1ccc(O)cc1)C(=O)N[C@@H](CC(N)=O)C(=O)N[C@@H](C)C(=O)N[C@@H](CCCNC(=N)N)C(=O)N[C@@H](Cc1c[nH]c2ccccc12)C(=O)N[C@@H](CC(C)C)C(=O)N1CCC[C@H]1C(=O)N1CCC[C@H]1C(N)=O [W7A] (Ac-WHFSYNARWLPP-NH2),25,inhibiting PD-1/PD-L1,,
CC(=O)N[C@@H](Cc1c[nH]c2ccccc12)C(=O)N[C@@H](Cc1c[nH]cn1)C(=O)N[C@@H](Cc1ccccc1)C(=O)N[C@@H](CO)C(=O)N[C@@H](C)C(=O)N[C@@H](CC(N)=O)C(=O)N[C@@H](Cc1c[nH]c2ccccc12)C(=O)N[C@@H](CCCNC(=N)N)C(=O)N[C@@H](Cc1c[nH]c2ccccc12)C(=O)N[C@@H](CC(C)C)C(=O)N1CCC[C@H]1C(=O)N1CCC[C@H]1C(N)=O [Y5A] (Ac-WHFSANWRWLPP-NH2),52,inhibiting PD-1/PD-L1,,
"COc1cc(OCc2cccc(-c3ccccc3)c2C)cc(OC)c1CN1CCCC[C@H]1C(=O)O [BMS-1, reference compound]",,,3990,IC50 [2]: 76 nM
"CC(=O)N[C@@H](Cc1c[nH]c2ccccc12)C(=O)N[C@@H](Cc1c[nH]cn1)C(=O)N[C@@H](Cc1ccccc1)C(=O)N[C@@H](CO)C(=O)N[C@@H](Cc1ccc(O)cc1)C(=O)N[C@@H](CC(N)=O)C(=O)N[C@@H](Cc1c[nH]c2ccccc12)C(=O)N[C@@H](CCCNC(=N)N)C(=O)N[C@@H](Cc1c[nH]c2ccccc12)C(=O)N[C@@H](CC(C)C)C(=O)N1CCC[C@H]1C(=O)N1CCC[C@H]1C(N)=O [CLP003, reference compound] (Ac-WHFSYNWRWLPP-NH2)",4680,,,Kd [4]: 117 ± 80 nM
CC(=O)N[C@@H](Cc1c[nH]c2ccccc12)C(=O)N[C@@H](Cc1c[nH]cn1)C(=O)N[C@@H](Cc1ccccc1)C(=O)N[C@@H](CO)C(=O)N[C@@H](Cc1ccc(O)cc1)C(=O)N[C@@H](CC(N)=O)C(=O)NCc1cccc(/N=N/c2cccc(CC(=O)N[C@@H](CCCNC(=N)N)C(=O)N[C@@H](Cc3c[nH]c4ccccc34)C(=O)N[C@@H](CC(C)C)C(=O)N3CCC[C@H]3C(=O)N3CCC[C@H]3C(N)=O)c2)c1 [compound 1] (Ac-WHFSYN[X1]RWLPP-NH2),,,5580,"Inhibition of PD-1/PD-L1 (HTRF), trans isomer ([1]; sample left in the dark (trans isomer), at up to 100 μM, detection buffer with 5% DMSO): no appreciable inhibition; Thermal stability at 37 °C over 8 h (degradation / isomer state) [5]: no degradation while remaining predominantly the cis isomer; also recorded: no observable change"
